From patent US6770596B1, “Fused tricyclic compounds, process for their preparation, and herbicidal compositions containing them” (Ishihara Sangyo Kaisha Ltd., priority 2002, dated 2004)

Key:
Type in all cases: in vivo
[1] = test system: redroot pigweed (Amaranthus retroflexus, AMR); assay: Pre-emerge test, redroot pigweed; settings: 250 g ai/ha, 14 days after application, rating scale 0-100 (0 no damage, 100 complete death)
Method in brief: (§1)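 Seeds sown in sandy loam in 10 cm pots one day before pre-emergence spraying of acetone-dissolved compounds at 8–1000 g ai/ha (187 l/ha, track sprayer), greenhouse. Phytotoxicity rated visually 14 days after application on a 0–100 scale (0 no damage, 100 complete death).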

[2] = test system: velvetleaf (Abutilon theophrasti, ABT); assay: Pre-emerge test, velvetleaf; settings: 250 g ai/ha, 14 days after application, rating scale 0-100 (0 no damage, 100 complete death)
Method in brief: as §1

[3] = test system: sicklepod (Cassia obtusifolia, CAO); assay: Pre-emerge test, sicklepod; settings: 250 g ai/ha, 14 days after application, rating scale 0-100 (0 no damage, 100 complete death)
Method in brief: as §1

[4] = test system: ivyleaf morningglory (Ipomoea hederacea, IPH); assay: Pre-emerge test, ivyleaf morningglory; settings: 250 g ai/ha, 14 days after application, rating scale 0-100 (0 no damage, 100 complete death)
Method in brief: as §1

[5] = test system: lambsquarters (Chenopodium album, CHA); assay: Pre-emerge test, lambsquarters; settings: 250 g ai/ha, 14 days after application, rating scale 0-100 (0 no damage, 100 complete death)
Method in brief: as §1

[6] = test system: common ragweed (Ambrosia artemisiifolia L., AML); assay: Pre-emerge test, common ragweed; settings: 250 g ai/ha, 14 days after application, rating scale 0-100 (0 no damage, 100 complete death)
Method in brief: as §1

[7] = test system: cocklebur (Xanthium strumariunt, XAS); assay: Pre-emerge test, cocklebur; settings: 250 g ai/ha, 14 days after application, rating scale 0-100 (0 no damage, 100 complete death)
Method in brief: as §1

[8] = test system: green foxtail (Setaria viridis, SEV); assay: Pre-emerge test, green foxtail; settings: 250 g ai/ha, 14 days after application, rating scale 0-100 (0 no damage, 100 complete death)
Method in brief: as §1

[9] = test system: barnyardgrass (Echinachloa crus-galli, ECC); assay: Pre-emerge test, barnyardgrass; settings: 250 g ai/ha, 14 days after application, rating scale 0-100 (0 no damage, 100 complete death)
Method in brief: as §1

[10] = test system: johnsongrass (Sorghum halepense, SOH); assay: Pre-emerge test, johnsongrass; settings: 250 g ai/ha, 14 days after application, rating scale 0-100 (0 no damage, 100 complete death)
Method in brief: as §1

[11] = test system: large crabgrass (Digitaria sanguinalis, DIS); assay: Pre-emerge test, large crabgrass; settings: 250 g ai/ha, 14 days after application, rating scale 0-100 (0 no damage, 100 complete death)
Method in brief: as §1

[12] = test system: field corn (Zea mays L., var. Dekalb 535, CORN); assay: Pre-emerge test, crop damage field corn
Method in brief: (§2)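 Efficacy values are 0–100 phytotoxicity scores (0 no damage, 100 complete death) recorded 14 days post-application. Spray was delivered pre-emergence at 187 l/ha with rates of 8–1000 g ai/ha, using acetone as solvent.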

[13] = test system: soybean (Glycine max L., var. Pella 86, SOY); assay: Pre-emerge test, crop damage soybean
Method in brief: as §2

[14] = test system: upland rice (Oryza sp., var.Tebonnet, RICE); assay: Pre-emerge test, crop damage upland rice
Method in brief: as §2

[15] = test system: wheat (Triticum aestivum); assay: Pre-emerge test, crop damage wheat
Method in brief: as §2

[16] = test system: redroot pigweed (Amaranthus retroflexus, AMR); assay: Post-emerge test, redroot pigweed; settings: 250 g ai/ha, 14 days after application, rating scale 0-100 (0 no damage, 100 complete death)
Method in brief: (§3)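 Under greenhouse conditions, 2-3 leaf plants got a single spray of 8-1000 g ai/ha in acetone with 0.25% v/v non-ionic surfactant. Phytotoxicity scoring on the 0-100 scale followed 14 days later.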

[17] = test system: velvetleaf (Abutilon theophrasti, ABT); assay: Post-emerge test, velvetleaf; settings: 250 g ai/ha, 14 days after application, rating scale 0-100 (0 no damage, 100 complete death)
Method in brief: as §3

[18] = test system: sicklepod (Cassia obtusifolia, CAO); assay: Post-emerge test, sicklepod; settings: 250 g ai/ha, 14 days after application, rating scale 0-100 (0 no damage, 100 complete death)
Method in brief: as §3

[19] = test system: ivyleaf morningglory (Ipomoea hederacea, IPH); assay: Post-emerge test, ivyleaf morningglory; settings: 250 g ai/ha, 14 days after application, rating scale 0-100 (0 no damage, 100 complete death)
Method in brief: as §3

[20] = test system: lambsquarters (Chenopodium album, CHA); assay: Post-emerge test, lambsquarters; settings: 250 g ai/ha, 14 days after application, rating scale 0-100 (0 no damage, 100 complete death)
Method in brief: as §3

[21] = test system: common ragweed (Ambrosia artemisiifolia L., AML); assay: Post-emerge test, common ragweed; settings: 250 g ai/ha, 14 days after application, rating scale 0-100 (0 no damage, 100 complete death)
Method in brief: as §3

[22] = test system: cocklebur (Xanthium strumariunt, XAS); assay: Post-emerge test, cocklebur; settings: 250 g ai/ha, 14 days after application, rating scale 0-100 (0 no damage, 100 complete death)
Method in brief: as §3

[23] = test system: green foxtail (Setaria viridis, SEV); assay: Post-emerge test, green foxtail; settings: 250 g ai/ha, 14 days after application, rating scale 0-100 (0 no damage, 100 complete death)
Method in brief: as §3

[24] = test system: barnyardgrass (Echinachloa crus-galli, ECC); assay: Post-emerge test, barnyardgrass; settings: 250 g ai/ha, 14 days after application, rating scale 0-100 (0 no damage, 100 complete death)
Method in brief: as §3

[25] = test system: johnsongrass (Sorghum halepense, SOH); assay: Post-emerge test, johnsongrass; settings: 250 g ai/ha, 14 days after application, rating scale 0-100 (0 no damage, 100 complete death)
Method in brief: as §3

[26] = test system: large crabgrass (Digitaria sanguinalis, DIS); assay: Post-emerge test, large crabgrass; settings: 250 g ai/ha, 14 days after application, rating scale 0-100 (0 no damage, 100 complete death)
Method in brief: as §3

[27] = test system: field corn (Zea mays L., var. Dekalb 535, CORN); assay: Post-emerge test, crop damage field corn
Method in brief: as §3

[28] = test system: soybean (Glycine max L., var. Pella 86, SOY); assay: Post-emerge test, crop damage soybean
Method in brief: as §3

[29] = test system: upland rice (Oryza sp., var.Tebonnet, RICE); assay: Post-emerge test, crop damage upland rice
Method in brief: as §3

[30] = test system: wheat (Triticum aestivum); assay: Post-emerge test, crop damage wheat
Method in brief: as §3

[31] = var. Dekalb 535, Zea mays (field corn), in vivo, 14 days
[32] = var. Pella 86, Glycine max (soybean), in vivo, 14 days
[33] = var. Tebonnet, Oryza sp. (upland rice), in vivo, 14 days
[34] = Triticum aestivum (wheat), in vivo, 14 days
[35] = pre-emerge, 250 g ai/ha, 14 days after application, rating scale 0-100 (0 no damage, 100 complete death)
[36] = post-emerge, 250 g ai/ha, 14 days after application, rating scale 0-100 (0 no damage, 100 complete death)

SMILES	Pre-emerge Herbicidal Activity AMR (phytotoxicity rating) [1]	Pre-emerge Herbicidal Activity ABT (phytotoxicity rating) [2]	Pre-emerge Herbicidal Activity CAO (phytotoxicity rating) [3]	Pre-emerge Herbicidal Activity IPH (phytotoxicity rating) [4]	Pre-emerge Herbicidal Activity CHA (phytotoxicity rating) [5]	Pre-emerge Herbicidal Activity AML (phytotoxicity rating) [6]	Pre-emerge Herbicidal Activity XAS (phytotoxicity rating) [7]	Pre-emerge Herbicidal Activity SEV (phytotoxicity rating) [8]	Pre-emerge Herbicidal Activity ECC (phytotoxicity rating) [9]	Pre-emerge Herbicidal Activity SOH (phytotoxicity rating) [10]	Pre-emerge Herbicidal Activity DIS (phytotoxicity rating) [11]	Post-emerge Herbicidal Activity AMR (phytotoxicity rating) [16]	Post-emerge Herbicidal Activity ABT (phytotoxicity rating) [17]	Post-emerge Herbicidal Activity CAO (phytotoxicity rating) [18]	Post-emerge Herbicidal Activity IPH (phytotoxicity rating) [19]	Post-emerge Herbicidal Activity CHA (phytotoxicity rating) [20]	Post-emerge Herbicidal Activity AML (phytotoxicity rating) [21]	Post-emerge Herbicidal Activity XAS (phytotoxicity rating) [22]	Post-emerge Herbicidal Activity SEV (phytotoxicity rating) [23]	Post-emerge Herbicidal Activity ECC (phytotoxicity rating) [24]	also measured
Cn1nc(-c2c(F)cc3c4c2NC(=O)CN4C(=O)CO3)c(Cl)c1OC(F)F [1-25, 8-[4-Chloro-5-(difluoromethoxy)-1-methyl-1H-pyrazole-3-yl)-9-fluoro-5H-pyrazino[1,2,3-de]-1,4-benzoxazine-3,6(2H, 7H)-dione]	100	100	100	100	100	100	95	100	100	100	100	100	100	100	100	100	99	100	100	95	Pre-emerge crop damage CORN (phytotoxicity rating) [12, 31]: 99; Pre-emerge crop damage SOY (phytotoxicity rating) [13, 32]: 40; Pre-emerge crop damage RICE (phytotoxicity rating) [14, 33]: 85; Pre-emerge crop damage WHEAT (phytotoxicity rating) [15, 34]: 85; Post-emerge Herbicidal Activity SOH (phytotoxicity rating) [25]: 60; Post-emerge Herbicidal Activity DIS (phytotoxicity rating) [26]: 60; Post-emerge crop damage CORN (phytotoxicity rating) [27, 31]: 35; Post-emerge crop damage SOY (phytotoxicity rating) [28, 32]: 100; Post-emerge crop damage RICE (phytotoxicity rating) [29, 33]: 100; Post-emerge crop damage WHEAT (phytotoxicity rating) [30, 34]: 60
CC1C(=O)Nc2c(-c3nn(C)c(OC(F)F)c3Cl)c(F)cc3c2N1C(=O)CO3 (stereo not drawn) [1-26, 8-[4-Chloro-5-(difluoromethoxy)-1-methyl-1H-pyrazole-3-yl)-9-fluoro-5-methyl-5H-pyrazino[1,2,3-de]-1,4-benzoxazine-3,6(2H, 7H)-dione]	100	100	99	100	100	100	99	100	100	100	100	100	100	100	100	100	99	100	100	99	Pre-emerge crop damage CORN (phytotoxicity rating) [12, 31]: 100; Pre-emerge crop damage SOY (phytotoxicity rating) [13, 32]: 98; Pre-emerge crop damage RICE (phytotoxicity rating) [14, 33]: 100; Pre-emerge crop damage WHEAT (phytotoxicity rating) [15, 34]: 98; Post-emerge Herbicidal Activity SOH (phytotoxicity rating) [25]: 80; Post-emerge Herbicidal Activity DIS (phytotoxicity rating) [26]: 40; Post-emerge crop damage CORN (phytotoxicity rating) [27, 31]: 40; Post-emerge crop damage SOY (phytotoxicity rating) [28, 32]: 100; Post-emerge crop damage RICE (phytotoxicity rating) [29, 33]: 90; Post-emerge crop damage WHEAT (phytotoxicity rating) [30, 34]: 60
Cn1nc(-c2c(F)cc3c4c2NC(=O)C(C)(C)N4C(=O)CO3)c(Cl)c1OC(F)F [1-27]	100	100	100	100	100	100	80	100	100	100	100	100	100	100	100	100	98	100	100	100	Pre-emerge crop damage CORN (phytotoxicity rating) [12, 35]: 55; Pre-emerge crop damage SOY (phytotoxicity rating) [13, 35]: 35; Pre-emerge crop damage RICE (phytotoxicity rating) [14, 35]: 85; Pre-emerge crop damage WHEAT (phytotoxicity rating) [15, 35]: 80; Post-emerge Herbicidal Activity SOH (phytotoxicity rating) [25]: 75; Post-emerge Herbicidal Activity DIS (phytotoxicity rating) [26]: 60; Post-emerge crop damage CORN (phytotoxicity rating) [27, 36]: 60; Post-emerge crop damage SOY (phytotoxicity rating) [28, 36]: 100; Post-emerge crop damage RICE (phytotoxicity rating) [29, 36]: 90; Post-emerge crop damage WHEAT (phytotoxicity rating) [30, 36]: 75
CCC1C(=O)Nc2c(-c3nn(C)c(OC(F)F)c3Cl)c(F)cc3c2N1C(=O)CO3 (stereo not drawn) [1-28]	100	100	100	100	100	98	100	100	100	100	100	100	100	100	100	100	100	100	100	99	Pre-emerge crop damage CORN (phytotoxicity rating) [12, 35]: 85; Pre-emerge crop damage SOY (phytotoxicity rating) [13, 35]: 40; Pre-emerge crop damage RICE (phytotoxicity rating) [14, 35]: 75; Pre-emerge crop damage WHEAT (phytotoxicity rating) [15, 35]: 65; Post-emerge Herbicidal Activity SOH (phytotoxicity rating) [25]: 80; Post-emerge Herbicidal Activity DIS (phytotoxicity rating) [26]: 15; Post-emerge crop damage CORN (phytotoxicity rating) [27, 36]: 25; Post-emerge crop damage SOY (phytotoxicity rating) [28, 36]: 100; Post-emerge crop damage RICE (phytotoxicity rating) [29, 36]: 100; Post-emerge crop damage WHEAT (phytotoxicity rating) [30, 36]: 50
